In patent US6613718B2, “Aryl ether derivatives and processes for their preparation and herbicidal and desiccant compositions containing them” (Ishihara Sangyo Kaisha, Ltd., priority 2001, dated 2003):

Columns and labels:
Format in all cases: in vivo
[1] = tested on: common ragweed (Ambrosia artemisiifolia L., AMBEL); assay: Post-emerge greenhouse herbicide activity screening, phytotoxicity rating
Text: (§1) A standard greenhouse herbicide activity screening system was used to evaluate the herbicidal efficacy and crop safety of these test compounds. Seven broadleaf weed species including redroot pigweed (Amaranthus retroflexus, AMARE), velvetleaf (Abutilon theophrasti, ABUTH), sicklepod (Cassia obtusifolia, CASOB), ivyleaf morningglory (Ipomoea hederacea, IPOHE), lambsquarters (Chenopodium album, CHEAL), common ragweed (Ambrosia artemisiifolia L., AMBEL), and cocklebur (Xanthium strumarium, XANST) were used as test species. Four grass weed species including green foxtail (Setaria viridis, SETVI), barnyardgrass (Echinochloa crus-galli, ECHCG), johnsongrass (Sorghum halepense, SORHA), and large crabgrass (Digitaria sanguinalis, DIGSA) were also used. In addition, three crop species, field corn (Zea mays L., var. Dekalb 535, CORN), soybean (Glycine max L., var. Pella 86, SOY), and upland rice (Oryza sp., var.Tebonnet, RICE) were included.
(§2) All plants were grown in 10 cm square plastic pots which were filled with a sandy loam soil mix. For pre-emerge tests, seeds were planted one day prior to application of the test compounds. For post-emerge tests, seeds were planted 8-21 days prior to the test to allow emergence and good foliage development prior to application of the test substances. At the time of the post-emerge application, plants of all species were usually at the 2-3 leaf stage of development.
(§3) All test compounds were dissolved in acetone and applied to the test units in a volume of 187 1/ha. Test materials were applied at rates ranging from 15 g ai/ha to 1000 g ai/ha using a track sprayer equipped with a TJ8001E even flow flat fan spray nozzle. Plants were arranged on a shelf so that the top of the canopy (post-emerge) or top of the soil surface (pre-emerge) was 40-45 cm below the nozzle. Pressurized air was used to force the test solution through the nozzle as it was mechanically advanced (via electrically driven chain drive) over the top of all test plants/pots. This application simulates a typical commercial field herbicide application.
(§4) In the post-emerge test, a commercial non-ionic surfactant was also included (0.25% v/v) to enhance wetting of the leaf surfaces of target plants. Immediately after application, test units of the pre-emerge applications were watered at the soil surface to incorporate the test materials. Subsequently, these test units were bottom-watered. Post-emerge test units were always bottom-watered.
(§5) At 14 days after application of the test materials, phytotoxicity ratings were recorded. A rating scale of 0-100 was used as previously described in Research Methods in Weed Science, 2nd edition, B. Truelove, Ed., Southern Weed Science Society, Auburn University, Auburn, Ala., 1977. Briefly, “0” corresponds to no damage and “100” corresponds to complete death of all plants in the test unit. This scale was used both to determine efficacy against weed species and damage to crop species. Herbicide activity data for various compounds of this invention, which are shown by compound No. in Tables I-VI, are shown in Tables VIII-IX.

[2] = tested on: johnsongrass (Sorghum halepense, SORHA); assay: as above; details: 14 days after application
Text: as §1, §2, §3, §4, §5

[3] = tested on: velvetleaf (Abutilon theophrasti, ABUTH); assay: as above; details: 14 days after application
Text: as §1, §2, §3, §4, §5

[4] = tested on: sicklepod (Cassia obtusifolia, CASOB); assay: as above
Text: as §1, §2, §3, §4, §5

[5] = tested on: ivyleaf morningglory (Ipomoea hederacea, IPOHE); assay: as above; details: 14 days after application
Text: as §1, §2, §3, §4, §5

[6] = tested on: barnyardgrass (Echinochloa crus-galli, ECHCG); assay: as above; details: 14 days after application
Text: as §1, §2, §3, §4, §5

[7] = tested on: redroot pigweed (Amaranthus retroflexus, AMARE); assay: as above
Text: as §1, §2, §3, §4, §5

[8] = tested on: large crabgrass (Digitaria sanguinalis, DIGSA); assay: as above; details: 14 days after application
Text: as §1, §2, §3, §4, §5

[9] = tested on: green foxtail (Setaria viridis, SETVI); assay: as above
Text: as §1, §2, §3, §4, §5

[10] = tested on: lambsquarters (Chenopodium album, CHEAL); assay: as above
Text: as §1, §2, §3, §4, §5

[11] = tested on: field corn (Zea mays L., var. Dekalb 535, CORN); assay: Post-emerge greenhouse screening, crop safety / corn selectivity (phytotoxicity rating); details: 14 days after application
Text: as §1, §2, §3, §4, §5

[12] = tested on: common ragweed (Ambrosia artemisiifolia L., AMBEL); assay: Pre-emerge greenhouse herbicide activity screening, phytotoxicity rating; details: 14 days after application
Text: as §1, §2, §3, §4, §5

[13] = tested on: johnsongrass (Sorghum halepense, SORHA); assay: as above; details: 14 days after application
Text: as §1, §2, §3, §4, §5

[14] = tested on: velvetleaf (Abutilon theophrasti, ABUTH); assay: as above; details: 14 days after application
Text: as §1, §2, §3, §4, §5

[15] = tested on: sicklepod (Cassia obtusifolia, CASOB); assay: as above; details: 14 days after application
Text: as §1, §2, §3, §4, §5

[16] = tested on: ivyleaf morningglory (Ipomoea hederacea, IPOHE); assay: as above; details: 14 days after application
Text: as §1, §2, §3, §4, §5

[17] = tested on: barnyardgrass (Echinochloa crus-galli, ECHCG); assay: as above; details: 14 days after application
Text: as §1, §2, §3, §4, §5

[18] = tested on: redroot pigweed (Amaranthus retroflexus, AMARE); assay: as above; details: 14 days after application
Text: as §1, §2, §3, §4, §5

[19] = tested on: large crabgrass (Digitaria sanguinalis, DIGSA); assay: as above; details: 14 days after application
Text: as §1, §2, §3, §4, §5

[20] = tested on: green foxtail (Setaria viridis, SETVI); assay: as above; details: 14 days after application
Text: as §1, §2, §3, §4, §5

[21] = tested on: lambsquarters (Chenopodium album, CHEAL); assay: as above; details: 14 days after application
Text: as §1, §2, §3, §4, §5

[22] = tested on: field corn (Zea mays L., var. Dekalb 535, CORN); assay: Pre-emerge greenhouse screening, crop safety (phytotoxicity rating); details: 14 days after application
Text: as §1, §2, §3, §4, §5

[23] = tested on: upland rice (Oryza sp., var.Tebonnet, RICE); assay: as above; details: 14 days after application
Text: as §1, §2, §3, §4, §5

[24] = tested on: soybean (Glycine max L., var. Pella 86, SOY); assay: as above; details: 14 days after application
Text: as §1, §2, §3, §4, §5

[25] = tested on: upland rice (Oryza sp., var.Tebonnet, RICE); assay: Post-emerge greenhouse screening, crop safety (phytotoxicity rating); details: 14 days after application
Text: as §1, §2, §3, §4, §5

[26] = tested on: soybean (Glycine max L., var. Pella 86, SOY); assay: as above; details: 14 days after application
Text: as §1, §2, §3, §4, §5

[27] = 125 g ai/ha, 14 days after application
[28] = 250 g ai/ha, 14 days after application

Structure (SMILES): Cn1c(C(F)(F)F)cc(=O)n(-c2cc(Oc3ccccc3[N+](=O)[O-])c(Cl)cc2F)c1=S [Compound 1-49]
- AMBEL phytotoxicity rating (0-100 scale) ([1]; 31.3 g ai/ha): 65
- AMBEL phytotoxicity rating (0-100 scale) ([1]; 62.5 g ai/ha): 65
- AMBEL phytotoxicity rating (0-100 scale) [1, 27]: 70
- AMBEL phytotoxicity rating (0-100 scale) [1, 28]: 70
- SORHA phytotoxicity rating (0-100 scale) ([2]; 125 g ai/ha): 0
- SORHA phytotoxicity rating (0-100 scale) ([2]; 250 g ai/ha): 0
- ABUTH phytotoxicity rating (0-100 scale) ([3]; 125 g ai/ha): 98
- ABUTH phytotoxicity rating (0-100 scale) ([3]; 250 g ai/ha): 100
- CASOB phytotoxicity rating (0-100 scale) ([4]; 31.3 g ai/ha): 60
- CASOB phytotoxicity rating (0-100 scale) ([4]; 62.5 g ai/ha): 70
- CASOB phytotoxicity rating (0-100 scale) [4, 27]: 75
- CASOB phytotoxicity rating (0-100 scale) [4, 28]: 75
- IPOHE phytotoxicity rating (0-100 scale) ([5]; 125 g ai/ha): 80
- IPOHE phytotoxicity rating (0-100 scale) ([5]; 250 g ai/ha): 80
- ECHCG phytotoxicity rating (0-100 scale) ([6]; 125 g ai/ha): 0
- ECHCG phytotoxicity rating (0-100 scale) ([6]; 250 g ai/ha): 0
- AMARE phytotoxicity rating (0-100 scale) ([7]; 31.3 g ai/ha): 98
- AMARE phytotoxicity rating (0-100 scale) ([7]; 62.5 g ai/ha): 98
- AMARE phytotoxicity rating (0-100 scale) [7, 27]: 99
- AMARE phytotoxicity rating (0-100 scale) [7, 28]: 100
- DIGSA phytotoxicity rating (0-100 scale) ([8]; 125 g ai/ha): 0
- DIGSA phytotoxicity rating (0-100 scale) ([8]; 250 g ai/ha): 0
- SETVI phytotoxicity rating (0-100 scale) ([9]; 31.3 g ai/ha): 0
- SETVI phytotoxicity rating (0-100 scale) ([9]; 62.5 g ai/ha): 0
- SETVI phytotoxicity rating (0-100 scale) [9, 27]: 0
- SETVI phytotoxicity rating (0-100 scale) [9, 28]: 0
- CHEAL phytotoxicity rating (0-100 scale) ([10]; 31.3 g ai/ha): 98
- CHEAL phytotoxicity rating (0-100 scale) ([10]; 62.5 g ai/ha): 98
- CHEAL phytotoxicity rating (0-100 scale) [10, 27]: 99
- CHEAL phytotoxicity rating (0-100 scale) [10, 28]: 100
- CORN crop damage, phytotoxicity rating (0-100 scale) ([11]; 125 g ai/ha): 0
- CORN crop damage, phytotoxicity rating (0-100 scale) ([11]; 250 g ai/ha): 0
- AMBEL phytotoxicity rating (0-100 scale) ([12]; 125 g ai/ha): 70
- AMBEL phytotoxicity rating (0-100 scale) ([12]; 250 g ai/ha): 80
- SORHA phytotoxicity rating (0-100 scale) ([13]; 125 g ai/ha): 40
- SORHA phytotoxicity rating (0-100 scale) ([13]; 250 g ai/ha): 60
- ABUTH phytotoxicity rating (0-100 scale) ([14]; 125 g ai/ha): 95
- ABUTH phytotoxicity rating (0-100 scale) ([14]; 250 g ai/ha): 100
- CASOB phytotoxicity rating (0-100 scale) ([15]; 125 g ai/ha): 50
- CASOB phytotoxicity rating (0-100 scale) ([15]; 250 g ai/ha): 70
- IPOHE phytotoxicity rating (0-100 scale) ([16]; 125 g ai/ha): 75
- IPOHE phytotoxicity rating (0-100 scale) ([16]; 250 g ai/ha): 80
- ECHCG phytotoxicity rating (0-100 scale) ([17]; 125 g ai/ha): 45
- ECHCG phytotoxicity rating (0-100 scale) ([17]; 250 g ai/ha): 98
- AMARE phytotoxicity rating (0-100 scale) ([18]; 125 g ai/ha): 100
- AMARE phytotoxicity rating (0-100 scale) ([18]; 250 g ai/ha): 100
- DIGSA phytotoxicity rating (0-100 scale) ([19]; 125 g ai/ha): 95
- DIGSA phytotoxicity rating (0-100 scale) ([19]; 250 g ai/ha): 99
- SETVI phytotoxicity rating (0-100 scale) ([20]; 125 g ai/ha): 99
- SETVI phytotoxicity rating (0-100 scale) ([20]; 250 g ai/ha): 100
- CHEAL phytotoxicity rating (0-100 scale) ([21]; 125 g ai/ha): 100
- CHEAL phytotoxicity rating (0-100 scale) ([21]; 250 g ai/ha): 100
- CORN crop damage, phytotoxicity rating (0-100 scale) ([22]; 125 g ai/ha): 0
- CORN crop damage, phytotoxicity rating (0-100 scale) ([22]; 250 g ai/ha): 0
- RICE crop damage, phytotoxicity rating (0-100 scale) ([23]; 125 g ai/ha): 30
- RICE crop damage, phytotoxicity rating (0-100 scale) ([23]; 250 g ai/ha): 35
- SOY crop damage, phytotoxicity rating (0-100 scale) ([24]; 125 g ai/ha): 0
- SOY crop damage, phytotoxicity rating (0-100 scale) ([24]; 250 g ai/ha): 0
- RICE crop damage, phytotoxicity rating (0-100 scale) ([25]; 125 g ai/ha): 0
- RICE crop damage, phytotoxicity rating (0-100 scale) ([25]; 250 g ai/ha): 25
- SOY crop damage, phytotoxicity rating (0-100 scale) ([26]; 125 g ai/ha): 10
- SOY crop damage, phytotoxicity rating (0-100 scale) ([26]; 250 g ai/ha): 15
